Key:
[1] = system: SUDIPGXXI (diffuse intrinsic pontine glioma line); experiment: EC50 (inflection of fitted growth-inhibition curve) (log10 M)
Procedure, shortened: (§1)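 A pin tool was used to add a 10-point threefold dilution series (mean top concentration 35 μM), in triplicate, to patient-derived pHGG/DIPG cell lines and astrocyte controls seeded on 384-well plates coated with 1% Geltrex. After 7 days at 37 °C and 5% CO2 (3 days for iAstro), CellTiter-Glo luminescence was log2-transformed, normalised on each plate to % activity relative to negative (solvent) and positive control wells, and pooled. EC50 and maximal response (yFin) were read from the three- or four-parameter log-logistic fit with the lowest AICc.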

[2] = system: SUDIPGXXI; experiment: maximal growth inhibition (yFin) relative to DMSO / staurosporine; higher = more efficacious
Procedure, shortened: as §1

[3] = system: DIPGX29 (H3.3 K27M diffuse intrinsic pontine glioma line); experiment: area under dose-response curve of % growth inhibition (log2 RLU vs DMSO / staurosporine), 1e-11 to 1e-4 M (% x log10 M); higher = more growth inhibition
Procedure, shortened: (§2)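 A 10-point threefold dilution series, mean top concentration 35 μM, was applied in triplicate to patient-derived pHGG/DIPG lines and astrocytes on 1% Geltrex-coated 384-well plates for 7 days (3 days for iAstro) at 37 °C, 5% CO2. Per-plate % activity between solvent and positive controls was calculated from log2-transformed CellTiter-Glo luminescence. Area under the curve followed from the trapezoid rule on a log-logistic fit, or on a smoothing spline when the sigmoid fit failed.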

[4] = system: DIPGX37 (H3.3 K27M diffuse intrinsic pontine glioma line); experiment: as above
Procedure, shortened: as §2

[5] = system: DIPGX7 (H3.3 K27M diffuse intrinsic pontine glioma line); experiment: as above
Procedure, shortened: as §2

[6] = system: DIPGX9 (diffuse intrinsic pontine glioma line); experiment: as above
Procedure, shortened: as §2

[7] = system: HABS (astrocyte control); experiment: as above
Procedure, shortened: as §2

[8] = system: HGGX2 (paediatric high-grade glioma line); experiment: as above
Procedure, shortened: as §2

[9] = system: HGGX39 (paediatric high-grade glioma line); experiment: as above
Procedure, shortened: as §2

[10] = system: HGGX42 (H3.3 G34R paediatric high-grade glioma line); experiment: as above
Procedure, shortened: as §2

[11] = system: HGGX6 (H3.3 G34R paediatric high-grade glioma line); experiment: as above
Procedure, shortened: as §2

[12] = system: SUDIPGIV (diffuse intrinsic pontine glioma line); experiment: as above
Procedure, shortened: as §2

[13] = system: SUDIPGVI (diffuse intrinsic pontine glioma line); experiment: as above
Procedure, shortened: as §2

[14] = system: SUDIPGXIII (diffuse intrinsic pontine glioma line); experiment: as above
Procedure, shortened: as §2

[15] = system: SUDIPGXIX (diffuse intrinsic pontine glioma line); experiment: as above
Procedure, shortened: as §2

[16] = system: SUDIPGXVII (diffuse intrinsic pontine glioma line); experiment: as above
Procedure, shortened: as §2

[17] = system: SUDIPGXXI; experiment: as above
Procedure, shortened: as §2

[18] = system: iAstro (astrocyte control); experiment: as above
Procedure, shortened: as §2

[19] = system: DIPGX29; experiment: EC50 (inflection of fitted growth-inhibition curve) (log10 M)
Procedure, shortened: as §1

[20] = system: DIPGX29; experiment: maximal growth inhibition (yFin) relative to DMSO / staurosporine; higher = more efficacious
Procedure, shortened: as §1

[21] = system: SUDIPGXIX; experiment: EC50 (inflection of fitted growth-inhibition curve) (log10 M)
Procedure, shortened: as §1

[22] = system: SUDIPGXIX; experiment: maximal growth inhibition (yFin) relative to DMSO / staurosporine; higher = more efficacious
Procedure, shortened: as §1

[23] = system: HGGX39; experiment: EC50 (inflection of fitted growth-inhibition curve) (log10 M)
Procedure, shortened: as §1

[24] = system: SUDIPGIV; experiment: as above
Procedure, shortened: as §1

[25] = system: HGGX39; experiment: maximal growth inhibition (yFin) relative to DMSO / staurosporine; higher = more efficacious
Procedure, shortened: as §1

[26] = system: SUDIPGIV; experiment: as above
Procedure, shortened: as §1

[27] = system: iAstro; experiment: EC50 (inflection of fitted growth-inhibition curve) (log10 M)
Procedure, shortened: as §1

[28] = system: iAstro; experiment: maximal growth inhibition (yFin) relative to DMSO / staurosporine; higher = more efficacious
Procedure, shortened: as §1

[29] = system: DIPGX37; experiment: EC50 (inflection of fitted growth-inhibition curve) (log10 M)
Procedure, shortened: as §1

[30] = system: HGGX6; experiment: as above
Procedure, shortened: as §1

[31] = system: DIPGX37; experiment: maximal growth inhibition (yFin) relative to DMSO / staurosporine; higher = more efficacious
Procedure, shortened: as §1

[32] = system: HGGX6; experiment: as above
Procedure, shortened: as §1

Row | SMILES | EC50 (log10 M) [1] | maximal growth inhibition [2] | area under dose-response curve [3] | area under dose-response curve [4] | area under dose-response curve [5] | area under dose-response curve [6] | area under dose-response curve [7] | area under dose-response curve [8] | area under dose-response curve [9] | area under dose-response curve [10] | area under dose-response curve [11] | area under dose-response curve [12] | area under dose-response curve [13] | area under dose-response curve [14] | area under dose-response curve [15] | area under dose-response curve [16] | area under dose-response curve [17] | area under dose-response curve [18] | EC50 (log10 M) [19] | maximal growth inhibition [20] | EC50 (log10 M) [21] | maximal growth inhibition [22] | EC50 (log10 M) [23] | EC50 (log10 M) [24] | maximal growth inhibition [25] | maximal growth inhibition [26] | EC50 (log10 M) [27] | maximal growth inhibition [28] | EC50 (log10 M) [29] | EC50 (log10 M) [30] | maximal growth inhibition [31] | maximal growth inhibition [32]
1 | CS(=O)(=O)c1ccc(C(=O)Nc2ccc(Cl)c(-c3ccccn3)c2)c(Cl)c1 [VISMODEGIB] | -4.83 | 34.8% | 6.39 | 7.51 | 5.14 | 2.06 | 0 | 1.06 | 11.1 | 0.511 | 11.3 | 6.55 | 0 | 2.44 | 0 | 7.7 | 28.8 | 25.8 | – | – | – | – | – | – | – | – | – | – | – | – | – | –
2 | O=C([C@@H](Cc1cccc(C(F)(F)F)c1)NS(=O)(=O)c1cc(F)c2c(c1)CCNC2)N1CCCC1 [PFI-2] | -4.58 | 24.8% | 14 | 0.851 | 4.47 | 0 | 5.29 | 6.57 | 4.9 | 0 | 5.68 | 4.77 | 8.26 | 1.68 | 0 | 3.09 | 14.4 | 6.82 | -4.51 | 27.5% | – | – | – | – | – | – | – | – | – | – | – | –
3 | N[C@H]1C[C@@H]1c1ccc(-c2cccc(O)c2)cc1 [OG-L002] | – | – | 67.6 | 78.6 | 138 | 24.4 | 7.06 | 81.6 | 78.2 | 100 | 51.3 | 174 | 3.43 | 0 | 222 | 103 | 7.31 | 35.4 | – | – | -6.55 | 87.2% | – | – | – | – | – | – | – | – | – | –
4 | CC12CC3CC(C)(C1)CC(N)(C3)C2 [MEMANTINE] | -4.68 | 32.5% | 3.62 | 1.76 | 13.8 | 1.54 | 2.39 | 2.91 | 0.964 | 0.942 | 2.25 | 6.14 | 0 | 0 | 1.83 | 1.91 | 21.5 | 0.365 | – | – | – | – | – | – | – | – | – | – | – | – | – | –
5 | CC(C)(C)c1nc(-c2cccc(NS(=O)(=O)c3c(F)cccc3F)c2F)c(-c2ccnc(N)n2)s1 [DABRAFENIB] | – | – | 3.8 | 11.5 | 20.8 | 3.09 | 19.7 | 0 | 25.7 | 7.39 | 21.9 | 18.7 | 2.65 | 0.214 | 0 | 3.63 | 13.7 | 3.65 | – | – | – | – | – | – | – | – | – | – | – | – | – | –
6 | N=C(N)c1ccc(N=NNc2ccc(C(=N)N)cc2)cc1 [BERENIL] | -5.13 | 46.9% | 41.8 | 90.7 | 20.8 | 5.74 | 0.995 | 0 | 84.7 | 0 | 52.7 | 43.8 | 15.1 | 14.9 | 0 | 13.8 | 53.1 | 1.3 | – | – | – | – | -5.18 | -5.18 | 68.7% | 38.7% | – | – | – | – | – | –
7 | CCN(c1cc(-c2ccc(CN3CCOCC3)cc2)cc(C(=O)NCc2c(C)cc(C)[nH]c2=O)c1C)C1CCOCC1 [EPZ-6438] | – | – | 4.38 | 0 | 5.15 | 0 | 12.9 | 0 | 1.99 | 0 | 0 | 9.17 | 0 | 2.24 | 0.349 | 4.66 | 6.79 | 5.32 | – | – | – | – | – | – | – | – | – | – | – | – | – | –
8 | CC(C)[C@H]1C(=O)N[C@@H](CCCNC(=N)N)C(=O)NCC(=O)N[C@@H](CC(=O)O)C(=O)N[C@H](Cc2ccccc2)C(=O)N1C [CILENGITIDE] | – | – | 10.1 | 4.08 | 15.6 | 8.99 | 3.86 | 8.33 | 4.22 | 11.4 | 2.93 | 4.77 | 0 | 0 | 0 | 4.38 | 1.67 | 0 | – | – | – | – | – | – | – | – | – | – | – | – | – | –
9 | C[C@]1(c2nc3c(C(N)=O)cccc3[nH]2)CCCN1 [VELIPARIB] | -4.72 | 99.9% | 0 | 0 | 1.28 | 6.96 | 3.94 | 1.41 | 0 | 0 | 0 | 6.66 | 0 | 0 | 7.71 | 9.93 | 100 | 7.64 | – | – | – | – | – | – | – | – | – | – | – | – | – | –
10 | CO[C@H]1C(=O)[C@]2(C)[C@@H](OC)C[C@H]3OC[C@@]3(OC(C)=O)[C@H]2[C@H](OC(=O)c2ccccc2)[C@]2(O)C[C@H](OC(=O)[C@H](O)[C@@H](NC(=O)OC(C)(C)C)c3ccccc3)C(C)=C1C2(C)C [CABAZITAXEL] | – | – | 71.3 | 119 | 68.4 | 141 | 147 | 156 | 123 | 102 | 78.2 | 255 | 37.8 | 29.9 | 120 | 50.5 | 515 | 79.4 | – | – | – | – | – | – | – | – | – | – | – | – | – | –
11 | CCOC(=O)c1ccc(C#Cc2ccc3c(c2)C(C)(C)CCS3)nc1 [TAZAROTENE] | -5.98 | 107% | 10.3 | 19.5 | 5.61 | 25.9 | 0 | 12.3 | 27.7 | 11.6 | 15.5 | 45.5 | 0 | 14.7 | 0 | 12.6 | 230 | 17 | – | – | – | – | – | – | – | – | -4.78 | 21.6% | – | – | – | –
12 | O=c1ncccn1[C@@H]1O[C@H](CO)[C@@H](O)[C@H]1O [ZEBULARINE] | – | – | 5.5 | 19.9 | 17.7 | 11.6 | 4.92 | 20 | 2.92 | 15.7 | 2.58 | 12 | 13.2 | 32.2 | 5.55 | 7.86 | 15.3 | 6.4 | – | – | – | – | – | – | – | – | – | – | – | – | – | –
13 | O=C(CCCCCCC(=O)Nc1ccc([C@H]2O[C@@H](CSc3nc(-c4ccccc4)c(-c4ccccc4)o3)C[C@@H](c3ccc(CO)cc3)O2)cc1)NO [TUBACIN] | -4.84 | 51.8% | 8.41 | 3.94 | 22.1 | 5.5 | 4.17 | 3.24 | 4.96 | 0 | 0 | 0.838 | 1.17 | 0 | 8.78 | 1.78 | 43.2 | 17 | – | – | – | – | – | – | – | – | -4.6 | 29.5% | – | – | – | –
14 | COc1ccc(Cn2ccc3ccc(C(=O)NO)cc32)cc1 | -4.78 | 117% | 24.9 | 30.6 | 20.3 | 19.1 | 11.9 | 14.8 | 10.3 | 25.8 | 5.76 | 6.64 | 2.84 | 30.1 | 24.5 | 7.72 | 91.2 | 47 | – | – | -4.78 | 31.4% | – | – | – | – | -4.67 | 47.6% | – | – | – | –
15 | C[C@@H](O[C@H]1OCCN(Cc2nn(P(=O)(O)O)c(=O)[nH]2)[C@H]1c1ccc(F)cc1)c1cc(C(F)(F)F)cc(C(F)(F)F)c1 [FOSAPREPITANT] | – | – | 63.6 | 70.6 | – | – | – | – | 66.7 | – | 47.1 | – | – | – | – | – | – | – | -4.84 | 60.6% | – | – | -4.81 | – | 82.4% | – | – | – | -4.83 | -4.84 | 69.8% | 56%
16 | COc1cc2/c(=N/c3ccc(Br)cc3F)nc[nH]c2cc1OCC1CCN(C)CC1 [VANDETANIB] | – | – | 68.7 | 65.1 | – | – | – | – | 60.3 | – | 54.2 | – | – | – | – | – | – | – | -4.74 | 80.7% | – | – | -4.75 | – | 80.4% | – | – | – | -4.7 | -4.7 | 80.9% | 77.1%
17 | COc1cc(C(=O)N2CC[C@@H](O)[C@@H](N)C2)cc2nc(-c3cc4ccccc4n3CC3CC3)n(C)c12 [GSK-484] | – | – | 54.6 | 67.7 | – | – | – | – | 20.6 | – | 48.9 | – | – | – | – | – | – | – | -4.94 | 50.1% | – | – | -4.99 | – | 20.9% | – | – | – | -4.89 | -4.98 | 64% | 45.4%

Reference: the supplement of paper PMC8253809
